# Test results as given in patent US20250129070A1, “BIFUNCTIONAL ANDROGEN RECEPTOR COMPOUNDS” (priority 2023, published 2025).
# Tested on: VCaP cells
# Assay: VCaP growth inhibition assay
# Type: cell-based
# Conditions: 30 pM R1881, 9 days, CTG
# Protocol: VCaP cells (ATCC Cat #CRL-2876) are plated at 1×10^4 cells per well of a white plastic 96-well cluster plate (Thermo Scientific Nunc Cat #165306) in 100 uL phenol red-free DMEM (Gibco Cat #21063-029) media with 5% CSS (Omega Scientific Cat #FB-04). Cluster plates are returned to the incubator (37*C/5% CO2) for 72 hours prior to treatment. Just prior to treatment, 100 μL of phenol red-free DMEM/5% CSS and […] R1881 (Sigma Cat #R0908-10 mg) was added to each well of the cluster plates (Final R1881 concentration=30 pM). Compounds (200×) were added to each well in a volume of 1 uL, with serial dilutions (1:5) from 20 uM to 2 pM (final concentrations in well are 100 nM to 10 fM). Cluster plates are returned to the incubator for 9 days.
# After the 9-day treatment period, media was removed from the cluster plates by inversion and 100 uL room temperature CTG reagent (Promega Cat #G7573) is added to each well. The cluster plates are placed on a shaker and incubated at room temperature for 20 minutes. Following this shaking/incubation, cluster plates are read on a luminometer (BMG ClarioStar). IC50 values are obtained by graphing the RLU data vs. compound concentration with nonlinear regression 4-parameter logistic curves (GraphPad Prism).
row,SMILES,IC50 [nM]
1,"CC(=O)N1CCc2c(c(N3CCCc4cc(-c5cnn(C)c5)c(C(F)F)cc43)nn2C2CCN(CCOCc3ncc(C(=O)NC4C(C)(C)C(Oc5ccc(C#N)c(Cl)c5)C4(C)C)cn3)CC2)C1 (stereo not drawn) [Compound 88, 2-[2-[4-[5-acetyl-3-[7-(difluoromethyl)-6-(1-methylpyrazol-4-yl)-3,4-dihydro-2H-quinolin-1-yl]-6,7-dihydro-4H-pyrazolo[4,3-c]pyridin-1-yl]-1-piperidyl]ethoxymethyl]-N-[3-(3-chloro-4-cyano-phenoxy)-2,2,4,4-tetramethyl-cyclobutyl]pyrimidine-5-carboxamide]",0.1 to 1
2,"COc1cc(OC2C(C)(C)C(NC(=O)c3ccc(N4CC(N5CCC6(CCC(n7nc(N8CCCc9cc(-c%10cnn(C)c%10)c(C(F)F)cc98)c8c7CCN(C(C)=O)C8)CC6)CC5)C4)cc3)C2(C)C)ccc1C#N (stereo not drawn) [Compound 301, 4-[3-[9-[5-acetyl-3-[7-(difluoromethyl)-6-(1-methylpyrazol-4-yl)-3,4-dihydro-2H-quinolin-1-yl]-6,7-dihydro-4H-pyrazolo[4,3-c]pyridin-1-yl]-3-azaspiro[5.5]undecan-3-yl]azetidin-1-yl]-N-[3-(4-cyano-3-methoxy-phenoxy)-2,2,4,4-tetramethyl-cyclobutyl]benzamide]",≤ 0.1
3,"COc1cc(OC2C(C)(C)C(NC(=O)c3ccc(N4CCC5(CC4)CC(Oc4ccc(-c6cc7c(cc6C(F)F)N(c6nn(C8CCOCC8)c8c6CN(C(C)=O)CC8)CCC7)cn4)C5)cc3)C2(C)C)ccc1C#N (stereo not drawn) [Compound 306, 4-[2-[[5-[1-(5-acetyl-1-tetrahydropyran-4-yl-6,7-dihydro-4H-pyrazolo[4,3-c]pyridin-3-yl)-7-(difluoromethyl)-3,4-dihydro-2H-quinolin-6-yl]-2-pyridyl]oxy]-7-azaspiro[3.5]nonan-7-yl]-N-[3-(4-cyano-3-methoxy-phenoxy)-2,2,4,4-tetramethyl-cyclobutyl]benzamide]",1 to 100
4,"CC(=O)N1CCc2c(c(Nc3ccc(-c4cnn(C)c4)cc3F)nn2C2CCN(CC3CCN(c4ncc(C(=O)NC5C(C)(C)C(Oc6ccc(C#N)c(Cl)c6)C5(C)C)cn4)CC3)C2)C1 (stereo not drawn) [Compound 7, 2-[4-[[3-[5-acetyl-3-[2-fluoro-4-(1-methylpyrazol-4-yl)anilino]-6,7-dihydro-4H-pyrazolo[4,3-c]pyridin-1-yl]pyrrolidin-1-yl]methyl]-1-piperidyl]-N-[3-(3-chloro-4-cyano-phenoxy)-2,2,4,4-tetramethyl-cyclobutyl]pyrimidine-5-carboxamide]",0.1 to 1
5,"CC(=O)N1CCc2c(c(Nc3ccc(-c4cnn(C)c4)cc3F)nn2C2CN(C(=O)CN3CCN(c4ncc(C(=O)NC5C(C)(C)C(Oc6ccc(C#N)c(Cl)c6)C5(C)C)cn4)CC3)C2)C1 (stereo not drawn) [Compound 165, 2-[4-[2-[3-[5-acetyl-3-[2-fluoro-4-(1-methylpyrazol-4-yl)anilino]-6,7-dihydro-4H-pyrazolo[4,3-c]pyridin-1-yl]azetidin-1-yl]-2-oxo-ethyl]piperazin-1-yl]-N-[3-(3-chloro-4-cyano-phenoxy)-2,2,4,4-tetramethyl-cyclobutyl]pyrimidine-5-carboxamide]",≤ 0.1
6,"COc1cc(OC2C(C)(C)C(NC(=O)c3ccc(N4CCC5(CCC(n6cc(-c7cc8cccc(-c9nn(C%10CCOCC%10)c%10c9CN(C(C)=O)CC%10)c8cn7)cn6)CC5)CC4)cc3)C2(C)C)ccc1C#N (stereo not drawn) [Compound 269, 4-[9-[4-[8-(5-acetyl-1-tetrahydropyran-4-yl-6,7-dihydro-4H-pyrazolo[4,3-c]pyridin-3-yl)-3-isoquinolyl]pyrazol-1-yl]-3-azaspiro[5.5]undecan-3-yl]-N-[3-(4-cyano-3-methoxy-phenoxy)-2,2,4,4-tetramethyl-cyclobutyl]benzamide]",0.1 to 1
